Assay results from PubChem BioAssay AID1996.
Converted amounts (≈) assume the structure as drawn.

conditions: buffer; pH 7.4; 200.0 µM

SMILES | solubility kinetic [µg/mL]
CCN(C(=S)NC(=O)C1CC1)c1ccccc1 | > 37.3
O=c1c2[nH]c3ccc(Br)cc3c2ncn1Cc1ccncc1 | 0.4 (≈ 1.13 µM)
COc1ccc(F)cc1S(=O)(=O)Nc1ccncc1 | > 42.3
CN(C)c1ccc2c3c(ccc(N(C)C)c13)C(=O)OC2 | 36.6 (≈ 135 µM)
ClC1(Cl)CC1Cn1cnc2ccccc21 (stereo unspecified) | 33.4 (≈ 139 µM)
CCNC(=O)CC1C(=O)N(CC)C(=S)N1NC(=O)c1cccnc1 (stereo unspecified) | > 52.4
COc1ccc(CCNC2CCC(c3ccccc3)CC2)cc1 (stereo unspecified) | > 46.4
Cc1c(C(=O)OCC(=O)N2C(C)CCCC2C)oc2ccccc12 (stereo unspecified) | 44.1 (≈ 134 µM)
Cl.Nc1ncnc2nc[nH]c12 | > 25.7
COc1cc(OC)cc(C(=O)OCC(=O)Nc2ccc3[nH]c(=O)[nH]c3c2)c1 | 4.4 (≈ 11.8 µM)
Cc1ccc(-c2noc(CCCC(=O)NC3CCCCC3)n2)cc1 | 7.8 (≈ 23.8 µM)
CCCCN1C(=O)N(c2ccccc2Cl)C(C)(O)CC1(C)C (stereo unspecified) | 47.6 (≈ 147 µM)
C/C(=N\OCC(=O)O)c1ccc(Cl)cc1 | > 34.1
Cc1csc(NC(=O)CSc2nccn2Cc2ccco2)n1 | 47.7 (≈ 143 µM)
CCn1c(C)nnc1SCC(=O)Nc1ccc(C(C)=O)cc1 | > 47.8
CC(=O)NS(=O)(=O)c1ccc(NC(=S)Nc2ccccc2)cc1 | > 52.4
CCOc1cc(Cl)c(CNCCCN2CCOCC2)cc1OC | > 51.4
Cc1ccccc1SCC(=O)NCCCn1ccnc1 | 42.9 (≈ 148 µM)
O=[N+]([O-])/C=C1\CCCCCN1 | > 23.4
Cc1nn(C)c(C)c1NS(=O)(=O)c1ccc(Cl)cc1 | > 45
Cc1ccccc1-c1nnc(SCC(=O)N(C)C2CCS(=O)(=O)C2)n1C (stereo unspecified) | > 59.2

SMILES | solubility kinetic [µg/mL]
COc1ccccc1N1CCN(C(=S)Nc2ccccc2)CC1 | 39.3 (≈ 120 µM)
CC(NC(=O)c1c(F)cccc1Cl)c1ccc(-n2ccnc2)cc1 (stereo unspecified) | > 51.6
CN1CCN(C(=O)/C=C/c2ccc(C#N)cc2)CC1 | > 38.3
Cc1ccc(S(=O)(=O)N2CCC(C(=O)N3CCC3)CC2)cc1 | 47.4 (≈ 147 µM)
COc1cc(/C=C/C(=O)OCC(=O)N(C)Cc2ccccc2)cc(OC)c1OC | > 59.9
CN(C(=O)c1cc2ccccc2cc1O)C1CCCCC1 | 40.6 (≈ 143 µM)
CC1CCCC(C)N1C(=O)COC(=O)Cc1ccc(F)cc1 (stereo unspecified) | 30.9 (≈ 101 µM)
CCCn1c(C(=O)c2ccccc2)nc2ccccc21 | 9.7 (≈ 36.7 µM)
O=C(c1ccccc1)c1ccc(OCC(=O)N2CCOCC2)cc1 | > 48.8
Cc1ccc(-c2nc3ccccc3[nH]c2=O)cc1 | 1 (≈ 4.23 µM)
CCOC(=O)c1nc2c(=O)n(C)c(=O)n(C)c2n(C)c1=O | > 44.1
O=c1cnnc(Nc2ccccc2F)[nH]1 | > 30.9
CC(C)(C)S(=O)(=O)c1cnc(N2CCCCC2)nc1N | > 44.8
Cc1c(C(=O)O)cc(C(C)(C)C)n1CCSCCO | 38.8 (≈ 136 µM)
Cc1oncc1C(=O)Nc1cccc2ccccc12 | 34 (≈ 135 µM)
CSC1=NC2(C)CCCCC2C12C=CC(=O)C=C2 (stereo unspecified) | > 39.2
O=C(CCCC(=O)NC1CCCCC1)Nc1ccc([N+](=O)[O-])cc1 | 12 (≈ 36 µM)
CCc1cccc(CC)c1C(OC(C)=O)c1cccnc1 (stereo unspecified) | 30.7 (≈ 108 µM)
Nc1ncnc2c1ncn2CCc1ccccc1 | > 35.9
Cc1cc(C)cc(OCC(=O)N2CCN(c3ncccn3)CC2)c1 | > 49
O=C(CN1C(=O)c2cccc([N+](=O)[O-])c2C1=O)NCc1ccccc1 | > 50.9

SMILES | solubility kinetic [µg/mL]
Cc1ccccc1OCC1Cn2c(nc3c2c(=O)n(C)c(=O)n3C)O1 (stereo unspecified) | > 51.4
Cc1ccc(NC(=O)Cn2c([N+](=O)[O-])cnc2C)cc1 | > 41.1
Cc1ccc(NC(=O)Nc2cc(C)on2)cc1 | 12.8 (≈ 55.4 µM)
O=c1[nH]c(SCc2ccc(Cl)cc2)nc2ccccc12 | 0.8 (≈ 2.64 µM)
Cc1ccc(NC(=O)CN2CCN(Cc3ccccc3)CC2)cc1Cl | 7.7 (≈ 21.5 µM)
COc1ccccc1NC(=O)COC(=O)c1cn(C)c2ccccc12 | 1.5 (≈ 4.43 µM)
Cc1ccccc1CN(C)C(=O)COC(=O)c1ccc2[nH]c(C)c(C)c2c1 | 2.1 (≈ 5.76 µM)
Oc1ccccc1-c1nc(NC2CCCC2)c2ccccc2n1 | < 0.2
O=C(CCN=C1NS(=O)(=O)c2ccccc21)NCc1ccccc1F | > 54.2
CCN(CC)C(=S)Nc1ccc(C(=O)OC)cc1 | > 40
COc1cc(C(C)=O)ccc1OCC(=O)NC(=O)Nc1ccc(C)cc1C | 14.1 (≈ 38.1 µM)
Cc1cc2nc(-c3ccc[nH]c3=O)[nH]c2cc1C | 3.3 (≈ 13.8 µM)
Cc1nnc(NC(=O)c2ccc3nccnc3c2)s1 | > 40.7
COc1ccc(C(C)(C)C)cc1NC(=O)C1CCCO1 (stereo unspecified) | 41.5 (≈ 150 µM)
COc1ccc(CC(=O)O/N=C(\N)Cc2ccc([N+](=O)[O-])cc2)cc1 | 5.6 (≈ 16.3 µM)
Cn1c(=O)c2c([nH]c(=O)n2C)n(Cc2ccccc2)c1=O | > 42.9
O=C(CCc1nc2ccccc2s1)N1CCN(c2ccccc2)CC1 | > 52.7
CCNC(=O)COC(=O)Cc1ccc(Cl)cc1Cl | > 43.5
CC(=O)N1c2ccccc2CCc2ccc([N+](=O)[O-])cc21 | > 42.3
